Reference: US7381546B2, “Polyketides and their synthesis and use” (Biotica Technology Limited, priority 1998, dated 2008)
Where two headings read alike, the source gives them in different places. Each block holds one molecule with its values, some of them ahead of it.

Tested on: human lymphoblastoid cell lines 536
Experiment: Tritiated thymidine incorporation (DNA synthesis) bioassay in 536 cells
Assay type: cell-based
Conditions: for IC50: after 24 and 48 hours drug exposure, radiolabelled thymidine incorporation (FIG. 4), read-out: ID50% concentration-dependent inhibition of DNA synthesis
Description: Rapamycin induces a specific cell cycle arrest in G1 in the cell line 536, which is a human B lymphocytic line immortalised by Epstein Barr virus infection. The potency of each analogue was compared to that of rapamycin using the 536 cells as a bioassay. The 536 cells (obtained from the human genetic mutant cell repository, Camden, N.J., USA) were cultured in Iscoves medium supplemented with 10% fetal calf serum. For bioassay, 536 cells were seeded into 96 well microtitre plates at 10,000 per well in 100 μl of growth medium. Drug stocks of 1 mM in DMSO were prepared and further dilutions were made to give a constant final concentration of 0.1% DMSO in growth medium. Control cultures were treated with 0.1% DMSO in growth medium; experimental cultures received a final concentration of 10^−7M, 10^−8M, 10^−9M or 10^−10M rapamycin or rapamycin analogue. Each culture was set up in triplicate and replicate plates were labelled with 1 μCi tritiated thymidine (Amersham International, specific activity 70 Ci/mM) per well for 3 h at either Oh; 24 h; or 48 h incubation with drugs. At the respective time points the cultures were harvested onto glass fibre paper to trap the DNA following water lysis; free nucleotides were washed away. Radioactivity incorporated into the filter discs/trapped DNA was counted in a Packard scintillation counter using biodegradable scintillation fluid.
The dose response of human lymphoblastoid cell lines 536 was measured. […] This implies that none of the compounds were toxic to the 536 cell line.

- IC50: 3 nM
Molecule: COC1CC2CCC(C)C(O)(O2)C(=O)C(=O)N2CCCC2C(=O)OC(C(C)CC2CCC(O)C(OC)C2)CC(=O)C(C)/C=C(\C)C(O)C(OC)C(=O)C(C)CC(C)/C=C/C=C/C=C/1C (stereo not shown) [prolylrapamycin]

Molecule: 4-hydroxy-prolyl-26-demethoxy-rapamycin
- effect on DNA synthesis (mean cpm of radiolabelled thymidine incorporated) (0-3 h drug exposure, up to 100 nM (FIG. 3)): no appreciable effect
- inhibition of DNA synthesis (at 100 nM, after 24 and 48 hours (FIG. 4)): < 50%

- IC50 (Homo sapiens, Lymphoblastoid cell): 1 nM
Molecule: CO[C@H]1C[C@@H]2CC[C@@H](C)[C@@](O)(O2)C(=O)C(=O)N2CCCC[C@H]2C(=O)O[C@H]([C@H](C)C[C@@H]2CC[C@@H](O)[C@H](OC)C2)CC(=O)[C@H](C)/C=C(\C)[C@@H](O)[C@@H](OC)C(=O)[C@H](C)C[C@H](C)/C=C/C=C/C=C/1C [rapamycin, reference compound]
